Measurements taken from the supplement of paper PMC8967900.

How the values were obtained:
Experiment in all cases: selective drug sensitivity score (sDSS, relative to normal bone marrow) (sDSS (score)); higher = more potent and effective on the cell line relative to normal bone marrow cells
Details in all cases: 72 h
COG-LL-402h = test system: COG-LL-402h
MN-60 = test system: MN-60
RCH-ACV = test system: RCH-ACV
MHH-CALL-4 = test system: MHH-CALL-4
COG-LL-394h = test system: COG-LL-394h
MOLT-14 = test system: MOLT-14
REH = test system: REH
KARPAS-45 = test system: KARPAS-45
P30-OHKUBO = test system: P30-OHKUBO
KOPN-8 = test system: KOPN-8
NALL-1 = test system: NALL-1
TANOUE = test system: TANOUE
KASUMI-10 = test system: KASUMI-10
TMD5 = test system: TMD5
SEM cells = test system: SEM cells
NALM-16 = test system: NALM-16
HPB-ALL = test system: HPB-ALL
380 = test system: 380
MHH-CALL-3 = test system: MHH-CALL-3
MHH-CALL-2 = test system: MHH-CALL-2
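Further: ALL cell lines in 384-well plates, five doses spanning 10,000-fold, each plate scaled between vehicle and 100 µmol/L benzalkonium chloride controls, sDSS an adapted area-under-curve metric.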

Compound | selective drug sensitivity score (COG-LL-402h) | selective drug sensitivity score (MN-60) | selective drug sensitivity score (RCH-ACV) | selective drug sensitivity score (MHH-CALL-4) | selective drug sensitivity score (COG-LL-394h) | selective drug sensitivity score (MOLT-14) | selective drug sensitivity score (REH) | selective drug sensitivity score (KARPAS-45) | selective drug sensitivity score (P30-OHKUBO) | selective drug sensitivity score (KOPN-8) | selective drug sensitivity score (NALL-1) | selective drug sensitivity score (TANOUE) | selective drug sensitivity score (KASUMI-10) | selective drug sensitivity score (TMD5) | selective drug sensitivity score (SEM cells) | selective drug sensitivity score (NALM-16) | selective drug sensitivity score (HPB-ALL) | selective drug sensitivity score 380 | selective drug sensitivity score (MHH-CALL-3) | selective drug sensitivity score (MHH-CALL-2)
COc1ncc(-c2ccc3nccc(-c4ccnnc4)c3c2)cc1NS(=O)(=O)c1ccc(F)cc1F [Omipalisib] (top concentration 1000 nM) | 13.4 | 8.9 | 30 | 13.1 | -1.1 | -2.2 | 14.4 | 9.4 | 18.6 | 15.1 | 4.5 | -4 | 1.6 | -2.2 | 9.4 | 8.1 | 3.8 | 22.2 | 11.4 | 11
CNC(=O)c1cc(COc2nnc(Nc3ccc(Cl)cc3)c3ccoc23)ccn1 [Telatinib] (top concentration 10000 nM) | 0 | 0 | 0.2 | 0 | 0 | 0 | 2.6 | 0 | 2.9 | 0.9 | 0 | 0 | 0 | 0.9 | 0.2 | 0 | 0.9 | 0 | 0 | 0.4
CCCC(CCC)C(=O)O [Valproic_acid] (top concentration 1000000 nM) | 0 | 0 | 0 | 0 | 0 | 0 | 0 | 0 | 0 | 0 | 0 | 0 | 0 | 0 | 0 | 0 | 0 | 0 | 0 | 0
O=C(NC[C@H](O)CN1CCc2ccccc2C1)c1cc(NC2COC2)ncn1 (top concentration 10000 nM) | 0.34 | -0.06 | 1.24 | -0.06 | -0.06 | -0.06 | -0.06 | 0.04 | 0.84 | -0.06 | -0.06 | -0.06 | -0.06 | -0.06 | -0.06 | -0.06 | 3.44 | -0.06 | -0.06 | 0.04
COC(=O)c1ccc2c(c1)[nH]c1ncnc(NCCCN3CCCCC3)c12 [UM729] (top concentration 10000 nM) | 6.34 | 1.04 | 3.24 | 0.44 | 4.34 | 3.94 | 0.24 | 2.34 | 1.44 | 2.84 | -0.06 | -0.06 | 2.74 | -0.06 | 2.14 | 0.44 | 0.64 | 5.74 | 0.54 | -0.06
OC[C@H]1O[C@@H](n2cnc3c2N=CNC[C@H]3O)C[C@@H]1O [Pentostatin] (top concentration 10000 nM) | -0.44 | -0.44 | -0.44 | -0.44 | -0.44 | -0.24 | -0.44 | -0.14 | -0.44 | -0.14 | -0.44 | 0.36 | -0.44 | -0.24 | -0.44 | -0.44 | -0.44 | -0.44 | -0.44 | -0.44
CCOc1cc2ncc(C#N)c(Nc3ccc(OCc4ccccn4)c(Cl)c3)c2cc1NC(=O)/C=C/CN(C)C [Neratinib] (top concentration 1000 nM) | 7.78 | 0.38 | 5.38 | -0.22 | 5.48 | 4.28 | -0.12 | 2.28 | 2.78 | 2.28 | -0.32 | -0.72 | 3.68 | -0.52 | 1.28 | 1.78 | 2.38 | 4.98 | 4.98 | 2.58
Nc1nc(Cl)nc2c1ncn2[C@H]1C[C@H](O)[C@@H](CO)O1 [Cladribine] (top concentration 1000 nM) | 3.66 | -6.44 | 5.76 | 4.06 | -16 | 5.66 | -2.64 | -15.7 | 8.06 | 9.66 | 1.86 | -16 | 5.26 | -16 | 3.96 | -8.24 | -9.34 | 7.56 | 11.7 | 4.66
Cc1cnc(-c2ccccc2C(C)C)nc1NCc1ccc(-n2ccnn2)cc1 [ML323] (top concentration 10000 nM) | -0.36 | 0.04 | 3.34 | -0.36 | 3.64 | 1.94 | 3.44 | 4.64 | 0.54 | 1.14 | 0.14 | 1.44 | -0.36 | -0.26 | 1.14 | 0.64 | 0.64 | -0.36 | -0.36 | 0.24
O=C(O)c1ccc(O)c2ncccc12 [IOX-1] (top concentration 100000 nM) | 3.64 | 4.54 | 3.74 | 2.24 | -1.56 | 5.64 | 2.54 | 4.04 | 3.04 | 2.84 | 2.24 | 2.24 | 1.54 | 0.64 | 1.84 | 4.64 | 2.94 | 8.64 | 0.24 | 3.64
